Experimental findings from patent US20090280483A1, “Methods for Screening Interleukin-6 (IL-6) Signal Transduction Inhibitors” (priority 2005, published 2009) are described below.

Test [1] addresses T1, STAT3 (Mus musculus, UniProt P42227).
T1 construct: Exponentially proliferating M1 cells cultured in RPMI medium; endogenous in cells; host or cells: M1 cells
Briefly: Western blotting of IL-6-induced tyrosine phosphorylation of STAT3 in M1 cells. It is filed as cell-based, murine. The method, then:
Exponentially proliferating M1 cells cultured in RPMI medium supplemented with 10% fetal calf serum (FCS) in culture dish were treated with dimethyl sulfoxide (DMSO) and Compound No. 1, 2, 7, 10, 13, 14 or 16 at a final concentration of 10 μM for 30 minutes. Then, the cells were divided into two equal parts and incubated with or without murine IL-6 at a final concentration of 10 ng/ml for further 1 hour. Then, the M1 cells were suspended at a density of 1×10^7 cells/ml in lysis buffer (0.5% Triton X-100, 50 mM Tris-HCl, (pH7.5), 0.1 mM EDTA, 150 mM NaCl, 200 μM Na3VO4, 50 mM NaF, 1 mM dithiothreitol (DTT), 0.4 mM phenylmethylsulfonyl fluoride (PMSF), 3 μg/mL aprotinin, 2 μg/mL pepstatin A, 1 μg/mL leupeptin) and placed on ice for 30 minutes. The precipitate was removed by centrifuging the cell lysate at 12000 g for 15 minutes.
The samples thus obtained were separated by sodium dodecyl sulfate-polyacrylamide gel electrophoresis (SDS-PAGE). After the electrophoresis, the gel was placed on a PVDF transfer membrane prewetted in methanol for 10-20 seconds and then soaked in transfer buffer (25 mM tris, 192 mM glycine, 10% methanol, 0.1% SDS), and the assembly was sandwiched between two layers each consisting of 5 sheets of filter paper soaked in transfer buffer, whereby proteins were transferred to the transfer membrane using a semi-dry transfer method.
After transfer, the transfer membrane was shaken in blocking buffer (5% BSA, 1% BSA, 0.1% NaN3) for 30 minutes or more. Then, the membrane was washed with PBST (137 mM NaCl, 2.7 mM KCl, 1.5 mM KH2PO4, 8.1 mM Na2HPO4, 0.05% Tween20) three times for 5 minutes by shaking. The membrane was shaken for 60 minutes in an anti-STAT3 polyclonal antibody (C-20, Santa Cruz Biotechnology, Santa Cruz, Calif.) and an anti-phosphorylated STAT3 monoclonal antibody (B-7, Santa Cruz Biotechnology) as primary antibodies both diluted 1:1000 in PBST.
Then, the membrane was washed with PBST three times for 5 minutes by shaking. […]
On the technique in general: Immunoblotting shows a protein as a band on a membrane.

Test [2] addresses T2, STAT3 (Homo sapiens, UniProt P40763).
T2 construct: Exponentially proliferating 293T cells cultured in Dulbecco's Modified Eagle's Medium; endogenous in cells; host or cells: 293T cells
Nature of the test: Luciferase assay of IL-6-induced transcriptional activity of STAT3 in 293T cells. In kind it is cell-based. Conditions: GFAP promoter firefly luciferase reporter, 20 μM for 1 hour, then human IL-6 10 ng/ml for 16 hours. The protocol: A reporter vector (2 μg) containing the firefly luciferase gene linked downstream of the glial fibrillary acidic protein (GFAP) gene promoter sequence and an internal control vector (0.1 μg) containing the EF1 gene promoter linked to the Renilla luciferase gene were transfected into 293T cells at 1×10^6 cells/well in 12-well plates using Lipofectamine Plus Reagent (Life Technologies, Bethesda, Md.) as instructed by the manufacturer. Twenty-three hours after the transfection, dimethyl sulfoxide (DMSO) and Compounds No. 1, 2, 4, 7, 10, 13, 14 and 16 each at a final concentration of 20 μM were added. One hour after the compounds were added, the cells treated with each compound were divided into two equal parts and stimulated or not with human IL-6 at a final concentration of 10 ng/ml. After 16 hours, cell extracts were prepared from the cells and measured for the specific activity of firefly luciferase to Renilla luciferase using Dual luciferase reporter system (Promega, Madison, Wis.).
(In general: Reporter assays use an easily measured gene product as a stand-in for the process of interest.)

The target in test [3] is T2, STAT3. Briefly: Western blotting of IL-6-induced tyrosine phosphorylation of STAT3 in 293T cells. Conditions: 20 μM for 1 hour, then IL-6 10 ng/ml for 16 hours. In kind it is cell-based. The method, then:
Exponentially proliferating 293T cells cultured in Dulbecco's Modified Eagle's Medium (DMEM) supplemented with 10% fetal calf serum (FCS) in culture dish were incubated with dimethyl sulfoxide (DMSO) and Compounds No. 1, 2, 4, 7, 10, 13, 14 or 16 at a final concentration of 20 μM for 1 hour. Then, the cells were divided into two equal parts and incubated with or without murine IL-6 at a final concentration of 10 ng/ml for further 16 hours. Then, the 293T cells were suspended at a density of 1×10^7 cells/ml in lysis buffer, and placed on ice for 30 minutes. The precipitate was removed by centrifuging the cell lysate at 12000 g for 15 minutes.
The subsequent Western blot step was performed by the method described above.

The next test concerns ERK1/2. Briefly: Western blotting of IL-6-induced phosphorylation of ERK1/2 in M1 cells. It is filed as cell-based. Conditions: murine IL-6 10 ng/ml, time course 0 to 24 hours.
The test system of another test is KT-3 cells. Briefly: Negative screening: IL-6-dependent proliferation of KT-3 cells (FACS). The conditions noted are these: 10 μM (No. 4 at 2 μM), human IL-6 5 ng/ml, 48 hours. In kind it is cell-based. The protocol: Human tumor cell line KT-3 cells known to have the property of proliferating by IL-6 stimulation were used for negative screening.
KT-3 cells were grown to confluency, and plated on 6-well plates at 1×10^5 cells/well in RPMI medium supplemented with 10% fetal calf serum (FCS) containing human IL-6 (5 ng/ml). After incubation for 3 hours, dimethyl sulfoxide (DMSO) and the 18 compounds (Nos. 1-18) each at a final concentration of 10 μM (except for No. 4 at 2 μM) were added, and incubation was continued for 48 hours.
The human tumor cell line KT-3 cells treated as above were suspended at about 1×10^6 cells/100 μl in RPMI medium supplemented with 10% FCS. Then, FSC/SSC dot plots of these cells were obtained by using FACS Calibur (Becton Dickinson).

T1 sequence (P42227 whole entry): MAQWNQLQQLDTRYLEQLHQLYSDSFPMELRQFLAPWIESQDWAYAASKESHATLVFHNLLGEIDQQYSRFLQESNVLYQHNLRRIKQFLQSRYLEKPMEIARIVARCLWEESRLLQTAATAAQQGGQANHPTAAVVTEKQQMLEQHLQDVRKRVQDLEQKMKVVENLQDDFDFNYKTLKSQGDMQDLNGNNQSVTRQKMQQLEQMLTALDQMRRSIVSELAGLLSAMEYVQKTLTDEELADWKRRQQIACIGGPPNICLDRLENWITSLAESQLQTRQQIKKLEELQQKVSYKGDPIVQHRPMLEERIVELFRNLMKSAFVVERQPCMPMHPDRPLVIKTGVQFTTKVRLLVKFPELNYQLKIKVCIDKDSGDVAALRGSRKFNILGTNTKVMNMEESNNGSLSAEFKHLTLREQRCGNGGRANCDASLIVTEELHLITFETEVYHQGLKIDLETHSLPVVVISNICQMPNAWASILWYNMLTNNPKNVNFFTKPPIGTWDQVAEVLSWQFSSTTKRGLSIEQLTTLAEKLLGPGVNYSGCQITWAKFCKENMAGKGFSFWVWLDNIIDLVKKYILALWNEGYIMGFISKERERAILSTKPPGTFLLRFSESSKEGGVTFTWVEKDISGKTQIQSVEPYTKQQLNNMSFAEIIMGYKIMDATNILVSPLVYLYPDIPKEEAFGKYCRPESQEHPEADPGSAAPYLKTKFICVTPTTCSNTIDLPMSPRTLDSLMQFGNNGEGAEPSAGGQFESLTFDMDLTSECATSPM
T2 sequence (P40763 whole entry): as the sequence (P42227 whole entry) above, with D760E counted along it

Turning to `Br.O=[N+]([O-])c1ccc(-c2csc(Nc3cc(C(F)(F)F)cc(C(F)(F)F)c3)n2)cc1` [Compound No. 2], the “inhibition of tyrosine phosphorylation of STAT3 (time course)” value at STAT3 [1] (murine IL-6 10 ng/ml, at 3, 6, and 24 hours after the compound was added) is on record as “obvious inhibition”. Also, the “inhibitory effect on the transcriptional activity of STAT3” value against STAT3 [2] is reported as “obvious inhibitory effect”. The “inhibition of tyrosine phosphorylation of STAT3” value at STAT3 [3] is given as “obvious inhibition”. Besides, the “influence on the phosphorylation of ERK1/2 induced by IL-6” value with ERK1/2 is listed as “no influence”.
Consider `Br.O=[N+]([O-])c1ccc(-c2csc(Nc3cc(C(F)(F)F)cc(C(F)(F)F)c3)n2)cc1` [Compound No. 1], for which the “inhibition of IL-6-dependent proliferation of KT-3 cells” value with KT-3 cells is reported as “inhibition of cell proliferation”.
Turning to `Br.O=[N+]([O-])c1ccc(-c2csc(Nc3cc(C(F)(F)F)cc(C(F)(F)F)c3)n2)cc1` [compound 13], at STAT3 [1] (10 μM for 30 minutes, then murine IL-6 10 ng/ml for 1 hour), the “inhibition of tyrosine phosphorylation of STAT3” value is recorded as “obvious inhibition”. In addition, the “inhibition of tyrosine phosphorylation of STAT3 (time course)” value on STAT3 [1] (10 μM, IL-6 10 ng/ml, at 3 hours or later after the compounds were added) was “inhibition”.
